# Experimental data reported in patent publication US11384106B2, “Metal tricarbonyl complexes comprising substituted iminodiactic acid ligands and uses as radioisotope tracers” (priority 2015, dated 2022).
# How the values were obtained:
# [1] = Stability of ^18F radiotracer solution (pH 7) by HPLC; type: physicochemical; details: incubated for 23 hours
# Protocol: Re(CO)3(^18FFEDA) (3) was prepared by reacting the corresponding tosyl precursor, rheniumtricarbonyl-N-ethyltosylate iminodiacetate, Re(CO)3(TsDA), with [18F]fluoride ion (^18F) in anhydrous acetonitrile in the presence of K2CO3 and Kryptofix 222 at 110° C. for 20 min in a chemical processing control unit (CPCU). The resulting radiolabeled product was purified by semi-preparative high performance liquid chromatography (HPLC) using a Waters XTerra Prep RP 18 column (5 jam, 19×100 mm) and eluted with a mobile phase of 0.05 M triethylammonium phosphate (TEAP) buffer (pH=7)/ethanol (80:20 v/v) at a flow rate of 6 mL/min. The solution of the ^18F radiotracer (pH 7) was analyzed by HPLC for stability for up to 23 h.
# [2] = Stability of ^99mTc tracer at physiological pH / physiological conditions
# plasma protein = experiment: Plasma protein binding (PPB) from 10 min blood samples; type: in vitro ADME; details: rats
# Protocol: (§1) ^99mTc(CO)^3(FEDA) was evaluated in rats using ^131I-OIH as an internal control; urine was analyzed for metabolites. Plasma protein binding (PPB) and erythrocyte uptake (RCB) were determined from the 10 min blood samples. The Re(CO)3 analog was prepared for structural characterization.
# erythrocyte = experiment: Erythrocyte uptake (RCB) from 10 min blood samples; type: in vitro ADME; details: rats
# Protocol: as §1
# [3] = Evaluation in rats using ^131I-OIH as internal control (blood clearance, renal excretion, urine metabolites); type: in vivo; details: for % injected dose in the urine, as % of that of ^131I-OIH: relative to ^131I-OIH internal control
# Protocol: as §1
# [4] = relative to ^131I-OIH; cited from earlier work
compound,measurement,setting,value
Re(CO)3(N-(2-^18fluoroethyl)iminodiacetate) [Re(CO)3(^18FFEDA)],Stability by HPLC analysis after incubation,[1],only intact
^99mTc(CO)3(N-(2-fluoroethyl)iminodiacetate) [^99mTc(CO)3(FEDA)],Stability (time stable),[2]; physiological conditions,at least 1 d
same,Stability (time stable),[2]; physiological pH,≥ 24 h
same,Plasma protein binding (PPB),plasma protein,61%
same,Erythrocyte uptake (RCB),erythrocyte,20%
same,Clearance compared with ^131I-OIH,[3]; compared with gold standard ^131I-OIH,comparable to the gold standard
same,Renal excretion,"[3]; rat studies, compared with ^99mTc-MAG3",rapid renal excretion
same,Blood clearance,[3]; rats,rapid blood clearance
same,Specificity for renal excretion,[3]; rats,high specificity for renal excretion
same,Uptake in other organs,[3]; rats,lack of significant uptake in other organs
same,"% injected dose in the urine, as % of that of ^131I-OIH","[3]; rats, 10 min after injection",100%
same,"% injected dose in the urine, as % of that of ^131I-OIH","[3]; rats, 60 min after injection",99%
same,Metabolites in urine (form in which the tracer is excreted),"[3]; rats, urine analyzed for metabolites",secreted intact in the urine
"O=C([O-])CN=C([O-])CN=C([O-])CN=C([O-])C[S-].[O-2].[Tc+4] [^99mTc-MAG3, ^99mTc-mercaptoacetyltriglycine]",Clearance compared to ^131I-OIH,[4],50-65%
